Assay results published in US20090017103A1, “Antisense oligonucleotides for prevention of metastasis formation of cancer cells” (priority 2003, published 2009).
Marks after values point to notes of the source that are not given here.

Assays:
Format in all cases: cell-based, human
osteopontin = assay: Western blot of osteopontin expression after exposure to ASOs; settings: MDA-MB231, lipofectamine, 10 μM
osteonectin = assay: Western blot of osteonectin expression after exposure to ASOs; settings: for osteonectin expression in relation to untreated control (100%): single exposure, lipofectamine, 10 μM
[1] = test system: MDA-MB-231 breast cancer cells; assay: Clonogenicity assay (colony formation); settings: for % Control / Mean colony no.: Experiment II, single treatment; for Mean colony no.: control 705; for inhibition of colony formation (colony growth inhibition): single exposure
Protocol: For determining the response of MDA-MB-231 colony formation to exposure with antisense oligonucleotides and erucylphospho-NNN-trimethylpropanolamine (ErPC3) the following procedure was used. MDA-MB-231 cells were treated for various periods of time (see below), harvested and counted. Cells (5000) were then transferred into semi-solid medium containing 0.8t RPMI-methylcellulose and 30% FBS. Cells were plated onto 3.5 cm Petri-dishes (1 ml/dish) (NUNC, Wiesbaden, Germany) and usual cell culture conditions (37° C., 5% CO2 in humidified air) were applied. Colony formation (clusters of 30 or more cells) was visualized by staining with 3-[4,5-dimethylthiazol-2-yl]-2,5-diphenyltetrazolium-bromide (MTT; Serva, Heidelberg, Germany) and the resulting dark blue colonies were scored by an inverted microscope after 5-7 days. At least three dishes per treatment protocol were used.
Pending on the duration of treatment, 1×10^5-3×10^5 cells were transferred onto 6 well plates (Nunc, Wiesbaden, Germany) and grown for 24 h. For transfection, ASO stock solutions were prepared in medium without FBS. According to the protocol of the manufacturer, the respective ASO stock solution was mixed with lipofectamine to allow ASO-liposome complexes to form. To 200 μl medium containing ASO quantities resulting in 10 μM (Western blot and in vivo model) and in 5, 10, or 20 μM (clonogenicity assay) final ASO-concentrations, an equal volume of medium without FBS was added containing 5, 10, or 20 μl lipofectamine, respectively. In addition to the ASO treatment, a NSO control (20 μM final concentration with 20 μl lipofectamine) and a lipofectamine control (20 μl) were used. […] After 12 h the medium was changed, and cells were further grown for 48-72 h. In the case of a sequential combination treatment this first cycle was repeated with the respective combination partner.
The alkylphosphocholine ErPC3 was synthesized and provided by Prof. H. Eibl (MPI of Biophysical Chemistry, Göttingen, FRG). For treating MDA-MB-231 cells, ErPC3 which was kept as stock solution in ethanol and PBS (10 mM; ratio of diluents 1:1; V:V), was diluted in PBS resulting in final concentrations of 10, 14, and 20 μM. The medium containing ErPC3 was changed after 24 h in all experiments and the cells were further grown for 48-72 h without ErPC3 (for details of sequential exposure see below).
Sequential combination treatment consisted of two or three treatment cycles. The two cycle treatment started either with the ASO and was followed by ErPC3 or was performed with the reverse sequence. The three cycle treatment started either with two cycles of ASO followed by ErPC3 or an initial exposure to ErPC3 was followed by two cycles with an ASO.
Colony counts are presented as mean with corresponding standard deviation. For comparison of incidences between treatment groups the x^2 test was used and for comparison of the lesion sizes the Kruskal-Wallis test was applied. P values≦0.05 were considered significant. Predicted theoretical values of combinations were calculated according to the equation: C=a×b/100, where a and b are colony counts in percent of untreated control obtained in response to single agents. For each concentration applied theoretical values were calculated and compared with the real value of the combination. In addition, isobologram and multiple drug effect analysis was examined by a suitable program (CalcuSyn, Biosoft, Ferguson, USA) to study the nature of the interaction observed. For this purpose, the dose-effect curve for each drug alone was determined based on the experimental observations using the median-effect principle; the combination index (CI) for each combination was then calculated according to the following equation:
CI=(D)1/(Dx)1+(D)2/(Dx)2+(D1)×(D2)/(Dx)1×(Dx)2
where (D)1 and (D)2 are the doses of drug 1 and drug 2 that have x effect when used in combination and (Dx)1 and (Dx)2 are the doses of drug 1 and drug 2 that have the same x effect when used alone. […]

Row | Substance | osteopontin expression in relation to untreated control (100%) (osteopontin; single exposure) | osteopontin expression in relation to untreated control (100%) (osteopontin; twofold exposure) | further results
1 | 5′-GTTCAGGTCCTGGGCAACGG-3 (antisense GTTCAGGTCCTGGGCAACGG; all phosphorothioate, sugars by position and methylation of C not given here) [ASO-OPN-3] | 32% | 38% | 
2 | 5′-GGTCTGCGAAACTTCTTAGA-3′ [ASO-OPN-9] |  | 74% | 
3 | 5′-TTCAGGTCCTGGGCAACGGG-3′ [ASO-OPN-2] | 45% | 60% | 
4 | 5′-GGGGGCTGGGCAGCTGGTGG-3′ (antisense GGGGGCTGGGCAGCTGGTGG; all phosphorothioate, sugars by position and methylation of C not given here) [ASO-ON-3] |  |  | osteonectin expression in relation to untreated control (100%) (osteonectin; MDA-MB231): 25%; osteonectin expression in relation to untreated control (100%) (osteonectin; MDA-MB231^F (growing without FBS)): 22%; osteonectin expression in relation to untreated control (100%) (osteonectin; MDA-MB435s): 29%; decrease of osteonectin (osteonectin; MDA-MB-231 cells): 75%; maximum inhibition of protein expression / suppression of protein level (ON) (osteonectin; MDA-MB-231 cells, Western blot): 75%; % Control ([1]; 5 μM): 92%; Mean colony no. ([1]; 5 μM): 648^6); % Control ([1]; 10 μM): 82%; Mean colony no. ([1]; 10 μM): 576^7); % Control ([1]; 20 μM): 73%; Mean colony no. ([1]; 20 μM): 514; inhibition of colony formation (colony growth inhibition) ([1]; 5 μM): 8%; inhibition of colony formation (colony growth inhibition) ([1]; 10 μM): 14%; inhibition of colony formation (colony growth inhibition) ([1]; 20 μM): 27%; inhibition of colony formation (colony growth inhibition) ([1]; 20 μM, listed as ASO-ON-03, 20 µM): 21%
5 | 5′-CTCATGGTAGTGAGTTTTCC-3′ (antisense CTCATGGTAGTGAGTTTTCC; all phosphorothioate, sugars by position and methylation of C not given here) [ASO-OPN-1] | 25^2)3) % | 34^2)3) % | 
6 | 5′-TCAGGTCTGCGAAACTTCTT-3′ [ASO-OPN-10] |  | 86% | 
7 | 5′-ATGTGGCCACAGCATCTGGG-3′ (antisense ATGTGGCCACAGCATCTGGG; all phosphorothioate, sugars by position and methylation of C not given here) [ASO-OPN-8] | 48% | 97% | 
8 | 5′-GTGGCCACAGCATCTGGGTA-3′ [ASO-OPN-6] (antisense GTGGCCACAGCATCTGGGTA; all phosphorothioate, sugars by position and methylation of C not given here) | 45% | 68% | 
9 | 5′-GTGGCCACAGCATCTGGGTA-3′ [ASO-OPN-7] (antisense GTGGCCACAGCATCTGGGTA; all phosphorothioate, sugars by position and methylation of C not given here) | 31% | 69% | 
10 | 5′-ACACTAACTTAAAAAACAAA-3′ (antisense ACACTAACTTAAAAAACAAA; all phosphorothioate, sugars by position and methylation of C not given here) [ASO-OPN-5] | 43% | 80% | 
